Measurements published in patent US20260284214A1, “EXATECAN DERIVATIVE AND ANTIBODY-DRUG CONJUGATE THEREOF” (priority 2023, published 2026).
Like-named read-outs stand apart in the source and are kept apart here.

What was measured:
[1] = test system: KPL-4 (human breast cancer cells); experiment: Cell-proliferation inhibitory activity (CellTiter-Glo, 3 days); assay type: cell-based; conditions: KPL-4 cells
Text: (§1) The experiment was intended to detect in-vitro inhibitory activities of the compounds of the present disclosure on NCI-N87 (human gastric cancer cells), KPL-4 (human breast cancer cells) or MDA-MB-468 (human breast cancer cells).
(§2) Human gastric cancer cells NCI-N87 (ATCC, article number: CRL-5822), human breast cancer cells MDA-MB-468 (Cell Bank of the Committee on Type Culture Collection, Chinese Academy of Sciences, article number: TCHu136) and human breast cancer cells KPL-4 (Nanjing Cobioer Biosciences Co., Ltd., article number: CBP60379) were washed with PBS, then the cells were digested with 0.25% Trypsin-EDTA trypsin for about 3-10 minutes, and the digestion was terminated with a complete cell culture medium. The cells were centrifuged at 1000 rpm for 5 minutes, the supernatant was discarded, and the cells were resuspended with a complete cell culture medium, counted by a cell counter, and adjusted to a required density. Each well was added with 90.0 μL of the cell suspension according to 3000 cells per well, and the cell plate was placed into a 5% CO2 cell incubator at 37° C. to incubate the cells overnight.
(§3) In the experiment, a DMSO control group, a positive control group and a test sample group were provided respectively, and the compound Dxd was used as a positive control compound. The cell plate was taken out of the incubator to observe a cell adhesion state, and after cell adhesion, each well was added with 10.00 μL of the sample (starting from a final concentration 10 μM, diluted 5 times, 9 concentrations), shaken gently, and then placed into an incubator to incubate the cells.
(§4) After incubation for 3 days, each well was added with a CellTiter-Glo™ (Promega, article number: G7572/G7571) working solution according to 100.0 μL/well and oscillated by a constant-temperature oscillator to lyse the cells, and 10 minutes later, the plate was read on a microplate reader.
(§5) A calculation formula of a cell-proliferation inhibition rate was: cell-proliferation inhibition rate=(1−RLUtest sample well/RLUDMSO control well)×100%.
(§6) Data analysis: a graph was made by GraphPad Prism 8.0 software with a Log value of a sample concentration as an abscissa and Inhibition % as an ordinate, and data were subjected to Nonlinear regression (curve fit) analysis to obtain an IC50 value of each test sample.

[2] = test system: MDA-MB-468 (human breast cancer cells); experiment: as above; assay type: cell-based; conditions: MDA-MB-468 cells
Text: as §1, §2, §3, §4, §5, §6

[3] = test system: NCI-N87 (human gastric cancer cells); experiment: as above; assay type: cell-based
Text: as §1, §2, §3, §4, §5, §6

hERG potassium channel = hERG potassium channel (Homo sapiens, UniProt Q12809); experiment: hERG experiment, manual patch clamp; assay type: cell-based; conditions: HEK-293 cells stably expressing hERG; for inhibition at 10 µM: human, read-out: hERG current inhibition rate % (Mean ± SE, n = 2)
Experimental: Inhibitory effects of the compound of Example 2, the compound of Example 3 and Dxd on an hERG potassium channel were studied by a manual patch clamp technique (a gold standard of hERG safety evaluation), and the risk of ventricular repolarization toxicity caused was evaluated.
The weighed test sample was prepared into a 10 mM stock solution with DMSO, and then the stock solution of the test object was diluted into 3.33 mM intermediate dilution with DMSO. Then, 30 μL of the dilution was added into 10 mL of extracellular fluid to prepare 10 μM working solution, it was ensured that a DMSO content was 0.3%, then 50 μL of F68 was added to the extracellular fluid to enhance a solubility of the test object, and an F68 concentration was 0.5%. Solutions at all concentrations were subjected to ultrasound treatment for 20 minutes. The solubility of the sample was visually observed, and there was no visible precipitation in the 10 μM to-be-tested solution of the test object.
An HEK-293 cell line stably expressing the hERG potassium channel was adopted, and hERG potassium channel cells were purchased from Creacell Company (article number: A-0320). Cell culture method:
The HEK-293 cell line stably expressing the hERG potassium channel was cultured in a DMEM culture medium containing 10% fetal bovine serum and 0.8 mg/mL G418 at a culture temperature of 37° C. under a carbon dioxide concentration of 5%.
Cell passage: the old culture medium was removed, and the cells were washed once with PBS, then 1 mL of TrypLE™ Express solution was added, and the mixture was incubated at 37° C. for about 0.5 minutes. When the cells were separated from a dish bottom, about 5 mL of complete culture medium preheated at 37° C. was added. A cell suspension was gently blown with a straw to separate the aggregated cells. The cell suspension was transferred to a sterile centrifuge tube and centrifuged at 1000 rpm for 5 minutes to collect the cells. […]
An inhibitory effect of the test object on the hERG channel was detected by the manual patch clamp technique.

[4] = In-vivo pharmacokinetics of compounds in SD rats; conditions: intravenous; for clearance / half-life / AUC(0-t) at 8 h / Vd: rat, plasma; for AUC(0-t) at 8 h: read-out: AUC0-8 h; for Vd: read-out: Vz
Experimental: SD rats were taken as test animals to study in-vivo pharmacokinetics behaviors after injection administration of the compounds of the present disclosure to male and female SD rats at dosages of 1 mg/kg and 3 mg/kg.
• Species: male and female SD rats (2 female rats and 2 male rats/group) • Grade: SPF grade • Weight: about 200 g • Source: Hunan SJA Laboratory Animal Co., Ltd.
Male and female SD rats were injected with the test sample solution, and Compound 2 of the example and the Dxd were given in a dosage of 1 mg/kg and a dosage volume of 4 mL/kg. Compound 3 of the example and the Dxd were given in a dosage of 3 mg/kg and a dosage volume of 5 mL/kg.
Preparation of test sample solution: the test sample was dissolved with a solvent (10% DMSO-60% PEG400-30% (20% HP-β-CD-water)), and DMSO, PEG 400 and 20% HP-β-CD-water were added sequentially during preparation.
0 before administration, and 5 minutes, 15 minutes, 0.5 hours, 1 hour, 2 hours, 3 hours, 5 hours and 8 hours after administration.
0.2 mL of blood was collected and placed into an EDTA-2K anticoagulant tube. The anticoagulant tube was turned upside down gently to fully mix the anticoagulant (EDTA-2K) with the blood, and then immediately placed into wet ice, and plasma was centrifuged for separation within 1 hour after blood collection at 4° C. and 6800 g for 6 minutes. After centrifugation, the plasma was separated and stored in an ultra-low-temperature refrigerator as soon as possible until sample analysis.

Sequence of hERG potassium channel (Q12809 whole entry): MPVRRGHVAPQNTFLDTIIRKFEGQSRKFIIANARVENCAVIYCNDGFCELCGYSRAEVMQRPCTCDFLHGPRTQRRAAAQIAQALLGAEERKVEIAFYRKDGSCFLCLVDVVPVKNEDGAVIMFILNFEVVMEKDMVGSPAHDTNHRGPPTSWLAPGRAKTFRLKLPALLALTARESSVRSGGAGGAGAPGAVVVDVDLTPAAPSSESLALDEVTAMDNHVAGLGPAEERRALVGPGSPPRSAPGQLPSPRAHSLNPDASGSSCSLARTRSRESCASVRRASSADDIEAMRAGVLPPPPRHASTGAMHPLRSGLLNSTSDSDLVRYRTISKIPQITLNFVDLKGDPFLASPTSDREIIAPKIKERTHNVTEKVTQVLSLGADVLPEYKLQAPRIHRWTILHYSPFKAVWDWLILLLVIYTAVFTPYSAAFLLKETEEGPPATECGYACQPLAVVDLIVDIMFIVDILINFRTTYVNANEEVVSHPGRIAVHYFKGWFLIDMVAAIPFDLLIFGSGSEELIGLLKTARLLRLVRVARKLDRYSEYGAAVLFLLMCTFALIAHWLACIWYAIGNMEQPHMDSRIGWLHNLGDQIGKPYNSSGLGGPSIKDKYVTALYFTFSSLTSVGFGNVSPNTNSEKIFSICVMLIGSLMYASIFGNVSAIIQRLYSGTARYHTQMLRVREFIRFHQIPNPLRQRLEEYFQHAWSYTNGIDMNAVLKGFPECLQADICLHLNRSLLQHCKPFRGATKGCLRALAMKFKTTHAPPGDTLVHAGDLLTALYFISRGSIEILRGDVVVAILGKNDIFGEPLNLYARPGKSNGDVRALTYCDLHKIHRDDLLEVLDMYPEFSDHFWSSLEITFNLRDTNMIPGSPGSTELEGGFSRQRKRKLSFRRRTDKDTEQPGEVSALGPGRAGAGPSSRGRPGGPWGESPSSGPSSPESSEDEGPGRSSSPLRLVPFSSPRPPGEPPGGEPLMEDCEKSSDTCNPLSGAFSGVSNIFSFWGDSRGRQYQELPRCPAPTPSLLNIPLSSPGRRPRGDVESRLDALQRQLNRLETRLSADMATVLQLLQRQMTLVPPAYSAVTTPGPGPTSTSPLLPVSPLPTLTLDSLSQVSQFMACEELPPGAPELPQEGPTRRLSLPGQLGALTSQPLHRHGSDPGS

CC[C@@]1(O)C(=O)OCc2c1cc1n(c2=O)Cc2c-1nc1cc(F)c(C)c3c1c2[C@@H](NC(=O)CO)CC3 [Dxd]
IC50 ([1]; Homo sapiens, KPL4, 72 h): 32.3 nM
IC50 ([2]; Homo sapiens, 72 h): 2.71 nM
IC50 ([3]; Homo sapiens, 72 h): 22.6 nM
inhibition at 10 µM (hERG potassium channel): 10.3%
clearance ([4]; 1 mg/kg): 69.2 mL/min/kg
half-life ([4]; 1 mg/kg): 1.3 h
AUC(0-t) at 8 h ([4]; 1 mg/kg): 240 ng·h/mL
Vd ([4]; 1 mg/kg): 7.96 L/kg
clearance ([4]; 3 mg/kg): 65.7 mL/min/kg
half-life ([4]; 3 mg/kg): 1.96 h
AUC(0-t) at 8 h ([4]; 3 mg/kg): 760 ng·h/mL
Vd ([4]; 3 mg/kg): 10.9 L/kg

C#CCN(CCO)C(=O)N[C@H]1CCc2c(C)c(F)cc3nc4c(c1c23)Cn1c-4cc2c(c1=O)COC(=O)[C@]2(O)CC [Example 2]
IC50 [1]: 29.6 nM
IC50 [2]: 2.41 nM
IC50 [3]: 11 nM
hERG current inhibition rate % (Mean ± SE, n = 2) (hERG potassium channel; 10 μM): 2.89% ± 1.86%
AUC0-8 h ([4]; 1 mg/kg): 77.9 ng·h/mL
CL ([4]; 1 mg/kg): 12700 mL/min/kg
T1/2 ([4]; 1 mg/kg): 1.59 h
Vz ([4]; 1 mg/kg): 29 L/kg

C=CCN(CCO)C(=O)N[C@H]1CCc2c(C)c(F)cc3nc4c(c1c23)Cn1c-4cc2c(c1=O)COC(=O)[C@]2(O)CC [Example 3, 1-allyl-3-((1S,9S)-9-ethyl-5-fluoro-9-hydroxy-4-methyl-10,13-dioxo-2,3,9,10,13,15-hexahydro-1H,12H-benzo[de]pyrano[3′,4′:6,7]indolizino[1,2-b]quinolin-1-yl)-1-(2-hydroxyethyl)urea]
IC50 ([1]; Homo sapiens, KPL4, 72 h): 8.82 nM
IC50 ([2]; Homo sapiens, 72 h): 0.99 nM
IC50 ([3]; Homo sapiens, 72 h): 6.39 nM
inhibition at 10 µM (hERG potassium channel): 15.8%
clearance ([4]; 3 mg/kg): 124 mL/min/kg
half-life ([4]; 3 mg/kg): 1.73 h
AUC(0-t) at 8 h ([4]; 3 mg/kg): 405 ng·h/mL
Vd ([4]; 3 mg/kg): 18.7 L/kg
